In patent publication US5580757A, “Cloning and expression of biologically active α-galactosidase A as a fusion protein” (The Mount Sinai School of Medicine of the City University …, priority 1994, dated 1996):
Read-outs that look alike come from different tables or passages of the source.

What was measured:
[1] = biological target: human α-Gal A purified from spleen (Homo sapiens, UniProt P06280); conditions: read-out: Km (4-MU-α-D-Gal); cited from earlier work
[2] = biological target: human α-Gal A purified from plasma (Homo sapiens, UniProt P06280); conditions: read-out: Km (4-MU-α-D-Gal); cited from earlier work
[3] = system: CHO cells secreting recombinant α-Gal A; assay: Effect of glycosylation inhibitors on the secretion of recombinant α-Gal A; type: cell-based, Chinese hamster; conditions: recombinant CHO cultures, FIG. 15; concentration not given
Text: FIG. 15. Effect of glycosylation inhibitors on the secretion of recombinant α-Gal.

[4] = biological target: α-Gal A-Protein A domain E fusion protein (human; Staphylococcus aureus)
[5] = biological target: recombinant human α-galactosidase A secreted by CHO DG5.3 cells (human)
[6] = biological target: recombinant human α-galactosidase A secreted by CHO DG5.3 cells (human); remark: listed apart in the source
[7] = biological target: Sambucus nigra agglutinin (Sambucus nigra); assay: SNA-Sepharose chromatography of secreted enzyme
[8] = substrate: Cc1cc(=O)oc2cc(O[C@H]3O[C@H](CO)[C@H](O)[C@H](O)[C@H]3O)ccc12; assay: purified protein, by the assay type; conditions: other: recombinant α-Gal A; artificial substrate; pH 4.6; 37.0 °C

Cc1cc(=O)oc2cc(O[C@H]3O[C@H](CO)[C@H](O)[C@H](O)[C@H]3O)ccc12 [4-MU-α-D-galactopyranoside, 4-methylumbelliferyl-α-D-galactopyranoside]
Km [1]: 2500 µM
Km [2]: 1900 µM

OC[C@H]1NC[C@@H](O)[C@@H](O)[C@@H]1O [deoxymannojirimycin]
α-Gal A secretion rate [3]: remains the same as the controls

OC[C@H]1NC[C@H](O)[C@@H](O)[C@@H]1O [deoxynojirimycin]
α-Gal A secretion rate [3]: remains the same as the controls

O[C@H]1[C@H]2[C@H](O)CCCN2C[C@H]1O [swainsonine]
α-Gal A secretion rate [3]: remains the same as the controls

Collagenase (enzyme)
% Of Recovered α-Gal A Activity in the IgG column flow-through after collagenase treatment [4]: 89%

endoglycosidase F (enzyme)
shift in mobility on SDS-PAGE [5]: 4 kDa

peptide:N-glycosidase F (from UniProt P21163) (enzyme)
shift in mobility on SDS-PAGE [6]: 7 kDa

recombinant human α-galactosidase A secreted by CHO DG5.3 cells (enzyme)
Percent of Secreted α-Gal A Bound to SNA-Lectin [7]: 5%

tunicamycin
inhibition of secretion of α-Gal A [3]: ≤ 80%

B1: recombinant human α-galactosidase A (α-Gal A), secreted by CHO DG5.3 cells, purified (Homo sapiens) (protein)
chain: LDNGLARTPTMGWLHWERFMCNLDCQEEPDSCISEKLFMEMAELMVSEGWKDAGYEYLCIDDCWMAPQRDSEGRLQADPQRFPHGIRQLANYVHSKGLKLGIYADVGNKTCAGFPGSFGYYDIDAQTFADWGVDLLKFDGCYCDSLENLADGYKHMSLALNRTGRSIVYSCEWPLYMWPFQKPNYTEIRQYCNHWRNFADIDDSWKSIKSILDWTSFNQERIVDVAGPGGWNDPDMLVIGNFGLSWNQQVTQMALWAIMAAPLFMSNDLRHISPQAKALLQDKDVIAINQDPLGKQGYQLRQGDNFEVWERPLSGLAWAVAMINRQEIGGPRSYTIAVASLGKGVACNPACFITQLLPVKRKLGFYEWTSRLRSHINPTGTVLLQLENTMQMSLKDLL
Km [8]: 1900 µM
